Assay [1] has as its system CD94/NKG2A. Format: binding, human.
The subject of another assay is CD94/NKG2C. Type of assay: binding, human.
The target of another assay is HLA-E*0103 (Homo sapiens, UniProt P13747). Format: binding.
For the next assay, the system named is CD56dimNKG2A- NK cells. Format: cell-based, human.
In the next assay the test system is CD56dimNKG2A+ NK cells. Format: cell-based, human.
In assay [2] the test system is CD94/NKG2A. Conditions: cited from earlier work.

“And” between values parts separate entries of the source, which are not always exact repeats. Equal entries are not always repeated.

Consider VMAPRTLIL [HLA-Cw*03 leading seq], for which, in the assay on CD94/NKG2A [1], the “CD94/NKG2A+HLA-E+” value was 46.76% and 47.67% and 24.83%; the “frequency of CD94/NKG2A+HLA-E+ cells” value worked out at 47.67%. Further, the “CD94/NKG2C+HLA-E+” value with CD94/NKG2C is 1.12% and 2.94% and 8.23%. Further, at HLA-E*0103, the FI was 2.38 and 2.67 and 2.55; the “FI (fluorescent index of HLA-E expression)” value amounted to 2.55; the “HLA-E MFI” value was 26721 and 22777 and 24852.

On to NLVPMVATV [PP65], for which the “Perforin+CD56dimCD16+NKG2A-NKG2C-CD57-NK cells” value with CD56dimNKG2A- NK cells is 97.2 and 72.64 and 80.98 and 81.41. The “CD107a+CD56dimCD16+NKG2A+NKG2C-CD57-NK cells” value in the assay on CD56dimNKG2A+ NK cells was 4.88 and 4.5 and 3.34.

In the case of LQPRTFLL, in the assay with CD94/NKG2A [2], the “recognition of HLA-E/peptide complex by CD94/NKG2A on NK cells” value was “could recognize and interact”.

Consider EADPTGHSY/ NLVPMVATV [MAGE-1/HCMV PP65], for which the “HLA-E MFI” value on HLA-E*0103 was 8070 and 8138 and 7351.

Consider AISPRTLNA [AA9], for which the “recognition of HLA-E/peptide complex by NKG2A/CD94 on NK cells” value with CD94/NKG2A [2] is reported as “unable to be recognized by NKG2A/CD94”.

Take EADPTGHSY [MAGE-1]: the “CD94/NKG2A+HLA-E+” value in the assay with CD94/NKG2A [1] was 0.02% and 0.28% and 0.56%. Further, in the assay on CD94/NKG2C, the “CD94/NKG2C+HLA-E+” value is 0.54% and 1.07% and 0.11%.

On to VMPLSAPTL, for which the “recognition of HLA-E/peptide complex by CD94/NKG2A on NK cells” value in the assay with CD94/NKG2A [2] is recorded as “could not be interacted with CD94/NKG2A”.

The record behind these values is article PMC12303380 (PLOS Pathogens, 2025).
